A short description of this series: Solubility of Sembragiline in media at 37° C. The class given is physicochemical. As to conditions: for solubility at 4 h: read-out: Solubility of Sembragiline After 4 h.

The values below come from US10702479B2, “Pharmaceutical formulation comprising sembragiline” (Hoffmann-La Roche Inc., priority 2015, dated 2020).

What is called solubility is the dissolved amount per volume that the medium holds.

Converted amounts (≈) assume the structure as drawn. Like-named read-outs stand apart in the source and are kept apart here.

For `CC(=O)N[C@H]1CC(=O)N(c2ccc(OCc3cccc(F)c3)cc2)C1` [Sembragiline, N-[(3S)-1-[4-[(3-fluorophenyl)methoxy]phenyl]-5-oxo-pyrrolidin-3-yl]acetamide], the “Dose Solubility Ratio” value (1 mg, Water) was 25; the “Dose Solubility Ratio” value (1 mg, pH 1, HCl 0.1N) is 25; the “Dose Solubility Ratio” value (1 mg, pH 4.5, 50 mM acetate buffer) stood at 25; the “Dose Solubility Ratio” value (1 mg, pH 6.8, 50 mM phosphate buffer) was determined as 25; the “Dose Solubility Ratio” value (1 mg, pH 7.5, 50 mM phosphate buffer) is on record as 25; the “Dose Solubility Ratio” value (5 mg, Water) is 125. Moreover, the “Dose Solubility Ratio” value stood at 125 (5 mg, pH 1, HCl 0.1N); 125 (5 mg, pH 4.5, 50 mM acetate buffer); 125 (5 mg, pH 6.8, 50 mM phosphate buffer); 125 (5 mg, pH 7.5, 50 mM phosphate buffer). Moreover, the solubility at 4 h was 40 µg/mL (≈ 117 µM) (0.1 N HCl, simulated gastric fluid, pH 1, HCl 0.1N); 40 µg/mL (≈ 117 µM) (Water); 40 µg/mL (≈ 117 µM) (aqueous buffer, pH 4.5, 50 mM acetate buffer); 40 µg/mL (≈ 117 µM) (aqueous buffer, pH 6.8, 50 mM phosphate buffer); 40 µg/mL (≈ 117 µM) (aqueous buffer, pH 7.5, 50 mM phosphate buffer). The “Solubility of Sembragiline 250 mL” value was determined as 10 mg (Water); 10 mg (pH 1, HCl 0.1N); 10 mg (pH 4.5, 50 mM acetate buffer); 10 mg (pH 6.8, 50 mM phosphate buffer); 10 mg (pH 7.5, 50 mM phosphate buffer).
